Reference: patent US7063946B2, “Methods, reagents, kits and apparatus for protein function analysis” (Meso Scale Technologies, LLC., priority 2001, dated 2006)

What was measured:
Type in all cases: biochemical
[1] = biological target: T1, LCK (Homo sapiens, UniProt P06239); test: Kinase inhibitor profiling, pEY phosphorylation
T1 construct: specificity data for proteins generated from a library of eighteen full-length clones; host or cells: rabbit reticulocyte lysate, TnT coupled in vitro transcription/translation (cell-free)
T1 sequence (P06239 whole entry): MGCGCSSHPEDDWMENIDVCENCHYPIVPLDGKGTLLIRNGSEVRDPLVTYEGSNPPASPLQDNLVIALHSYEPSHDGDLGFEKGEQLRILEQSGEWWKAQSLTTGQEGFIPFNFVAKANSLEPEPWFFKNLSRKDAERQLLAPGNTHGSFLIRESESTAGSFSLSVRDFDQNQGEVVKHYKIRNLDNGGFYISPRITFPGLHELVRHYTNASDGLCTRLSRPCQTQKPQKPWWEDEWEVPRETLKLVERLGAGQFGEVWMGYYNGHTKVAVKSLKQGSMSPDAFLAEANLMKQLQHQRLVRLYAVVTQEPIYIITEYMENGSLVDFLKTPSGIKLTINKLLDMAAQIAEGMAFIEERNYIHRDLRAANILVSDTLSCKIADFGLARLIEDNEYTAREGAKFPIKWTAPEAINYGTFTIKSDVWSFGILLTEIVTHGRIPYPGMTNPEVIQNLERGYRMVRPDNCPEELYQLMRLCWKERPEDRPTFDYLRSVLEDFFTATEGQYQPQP
Protocol: (§1) Proteins were produced in an in vitro transcription and translation reaction. […] The unbound components of the reaction containing endogenous kinases were removed by three washes with TT-buffer (25 mM Tris-HCl buffer pH 7.4 and 0.004% Triton), two five minutes washings with high-salt wash buffer (25 mM Tris-HCl buffer pH 7.4, 0.004% Triton, 1M NaCl and 5 mM DTT) and 3 more washes with TT-buffer. To these immobilized and purified proteins a tyrosine kinase substrate, 5 nM pEY (poly Glu-Tyr, Sigma, MO), was added in a 50 μl reaction solution containing 5 mM MgCl2, 5 mM MnCl2, 100 μM ATP, 25 mM Tris-HCl buffer pH 7.4, 0.05 mM Na3VO4, 0.004% TritonX-100, 2 mM DTT and EDTA-free protease inhibitor (Roche Molecular Biochemicals). This mixture was incubated with shaking at room temperature overnight to allow phosphorylation of the pEY substrate by the immobilized kinases. Following this incubation, 45 μl of this mixture was transferred to a streptavidin or avidin-coated NPT IPR plate coated with biotinylated anti-phosphotyrosine antibody (PY20, Zymed labs, CA) followed by incubation for 30 minutes at room temperature to allow the binding of the phosphorylated pEY substrate to the PY20 coated NPT plate. Following this binding step, 50 ng Sulfo-TAG labeled anti-phosphotyrosine in buffer containing 25 mM Tris-HCl buffer pH 7.4, 5 mM MgCl2, 0.05 mM Na3VO4, 0.004% TritonX-100, 2 mM DTT and 0.05% IgG was added followed by incubation at room temperature for 30 mm. The unbound reagents were removed by one time washing with water, and the TAG label was detected in presence of 150 μl IPR assay buffer (0.4 mM Gly-Gly buffer, pH 7.8, 1 mM EDTA, 0.1 M TPA). The ECL signals were measured using an imaging plate reader.
(§2) The unbound components of the translation reaction (including any endogenous kinases) were removed by 3 washes with TT-buffer (25 mM Tris-HCl buffer pH 7.4 and 0.004% Triton), two five minutes washes with high-salt wash buffer (25 mM Tris-HCl buffer pH 7.4, 0.004% Triton, 1M NaCl and 5 mM DTT) and 3 washes with TT-buffer. […] The mixture was incubated at room temperature for 10 mm before starting the kinase reaction by adding 25 μl of 200 μM ATP in buffer A. This mixture was incubated with intermittent shaking at room temperature for 2 hours to overnight to allow (a) phosphorylation of the pEY substrate and (b) autophosphorylation of the immobilized kinases. Autophosphorylation and phosphorylation of the pEY was measured as described in Examples 7 and 8.
(§3) The ECL signal in control wells produced by tyrosine kinases was compared to the wells containing inhibitor compounds.

[2] = biological target: T2, BTK (Homo sapiens, UniProt Q06187); test: Kinase inhibitor profiling, pEY phosphorylation
T2 construct: specificity data for proteins generated from a library of eighteen full-length clones; host or cells: rabbit reticulocyte lysate, TnT coupled in vitro transcription/translation (cell-free)
T2 sequence (Q06187 whole entry): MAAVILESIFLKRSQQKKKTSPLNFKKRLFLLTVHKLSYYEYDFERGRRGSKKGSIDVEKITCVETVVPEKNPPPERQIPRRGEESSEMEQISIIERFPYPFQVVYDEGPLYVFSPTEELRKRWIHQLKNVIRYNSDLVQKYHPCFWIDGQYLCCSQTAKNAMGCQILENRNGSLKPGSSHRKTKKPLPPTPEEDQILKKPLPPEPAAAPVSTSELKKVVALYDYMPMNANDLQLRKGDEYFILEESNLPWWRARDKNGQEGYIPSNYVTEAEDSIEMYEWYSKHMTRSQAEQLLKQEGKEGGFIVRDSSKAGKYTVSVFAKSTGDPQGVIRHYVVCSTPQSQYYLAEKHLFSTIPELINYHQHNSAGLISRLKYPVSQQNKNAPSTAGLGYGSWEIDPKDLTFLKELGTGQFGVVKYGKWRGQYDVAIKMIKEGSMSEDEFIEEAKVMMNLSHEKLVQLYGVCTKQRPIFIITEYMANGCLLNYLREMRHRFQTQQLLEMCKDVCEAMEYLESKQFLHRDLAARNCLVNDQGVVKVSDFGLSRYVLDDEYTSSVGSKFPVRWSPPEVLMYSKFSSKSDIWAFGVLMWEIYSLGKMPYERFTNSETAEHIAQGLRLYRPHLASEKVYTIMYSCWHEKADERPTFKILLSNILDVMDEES
Protocol: as §1, §2, §3

[3] = biological target: T2, BTK; test: Kinase inhibitor profiling, autophosphorylation
[4] = biological target: T1, LCK; test: Kinase inhibitor profiling, autophosphorylation
Protocol: To promote autophosphorylation in these immobilized and purified proteins, Mn++ ions were added in a 50 μl reaction containing 5 mM MgCl2, 5 mM MnCl2, 100 μM ATP, 25 mM Tris-HCl buffer pH 7.4, 0.05 mM Na3VO4, 0.004% TritonX-100, 2 mM DTT and EDTA-free protease inhibitor (Roche Molecular Biochemicals). This mixture was incubated with shaking at room temperature overnight to allow autophosphorylation. Following this incubation, wells were washed 2 times with TT-buffer and 2 times with water. Following this step, 50 ng Sulfo-TAG labeled anti-phosphotyrosine in buffer containing 25 mM Tris-HCl buffer pH 7.4, 5 mM MgCl2, 0.05 mM Na3VO4, 0.004% TritonX-100, 2 mM DTT and 0.05% IgG in a final volume of 50 μl was added followed by incubation at room temperature for 45 min. The unbound reagents were removed by one time washing with water, and the TAG label was detected in presence of 150 μl IPR assay buffer (0.4 mM Gly—Gly buffer, pH 7.8, 1 mM EDTA, 0.1 M TPA). The ECL signals were measured using an imaging plate reader.
as §2, with “kinases.” for “kinases. Autophosphorylation and phosphorylation of the pEY was measured as described in Examples 7 and 8.”
as §3

Row | Compound | Inhibition specificity towards pEY phosphorylation at 10X IC50, LCK [1] | Inhibition specificity towards pEY phosphorylation at 10X IC50, BTK [2] | Inhibition specificity towards Autophosphorylation at 10X IC50, BTK [3] | Inhibition specificity towards Autophosphorylation at 10X IC50, LCK [4]
1 | Cc1ccc(-c2nn(C(C)(C)C)c3ncnc(N)c23)cc1 [PP1] | M (medium inhibition (“M”=between 25 to 50% of the activity remaining)) |  |  | 
2 | COc1c(C=O)c(O)cc2c1C(=O)c1ccccc1C2=O [Damnacanthal] |  | H (high inhibition (“H”=less than 25% of the activity remaining)) | H (high inhibition (“H”=less than 25% of the activity remaining)) | 
3 | Cc1cc2ncc(-c3ccc(O)c(O)c3)nc2cc1C [AG-1433] |  | H (high inhibition (“H”=less than 25% of the activity remaining)) | H (high inhibition (“H”=less than 25% of the activity remaining)) | H (high inhibition (“H”=less than 25% of the activity remaining))
4 | COc1cc2ncnc(Nc3ccc(O)cc3)c2cc1OC [WHI-P131] | H (high inhibition (“H”=less than 25% of the activity remaining)) | M (medium inhibition (“M”=between 25 to 50% of the activity remaining)) |  | M (medium inhibition (“M”=between 25 to 50% of the activity remaining))
5 | CC(C)(C)c1cc(C=C(C#N)C#N)cc(Br)c1O [AG-1024] |  | H (high inhibition (“H”=less than 25% of the activity remaining)) | L (low inhibition (“L”=between 50–75% of the activity remaining)) | 
6 | COc1cc2ncnc(Nc3ccc(Cl)cc3F)c2cc1OC [VEGFR inhibitor] | H (high inhibition (“H”=less than 25% of the activity remaining)) | M (medium inhibition (“M”=between 25 to 50% of the activity remaining)) | L (low inhibition (“L”=between 50–75% of the activity remaining)) | L (low inhibition (“L”=between 50–75% of the activity remaining))
7 | Erbstatin analog |  |  | L (low inhibition (“L”=between 50–75% of the activity remaining)) | L (low inhibition (“L”=between 50–75% of the activity remaining))
8 | COC(=O)c1ccc(NCc2cc(O)ccc2O)cc1 [AG-957] |  |  | L (low inhibition (“L”=between 50–75% of the activity remaining)) | 
